From patent US5770597A, “Quinolone derivatives and processes for preparing the same” (Korea Research Institute of Chemical Technology, priority 1993, dated 1998)
In brackets after ≈: the same amount, converted by molar mass. Where two headings read alike, the source gives them in different places.

Tests used:
[1] = tested on: Enterobacter cloacae P 99; assay type: cell-based; settings: Mueller-Hinton agar, 10^7 CFU/ml, 37° C., 18 hours
Experimental: (§1) The numbers in Tables represent the minimal inhibitory concentration (MIC, μg/ml) of the corresponding strains and MIC was determined in accordance with the agar culture medium two-fold dilution method by using a Mueller-Hinton agar.
(§2) Hoechst standard strains were used.

[2] = tested on: Enterobacter cloacae 1321E; test: In vitro antibacterial activity (MIC), agar two-fold dilution; assay type: cell-based; settings: Mueller-Hinton agar, 10^7 CFU/ml, 37° C., 18 hours
Experimental: as §1, §2

[3] = tested on: Escherichia coil DC 0; test: as above; assay type: cell-based, Escherichia coli
Experimental: as §1
(§3) Hoechst standard strains were used. […]

[4] = tested on: Escherichia coil 1507E; test: as above; assay type: cell-based, Escherichia coli; settings: Mueller-Hinton agar, 10^7 CFU/ml, 37° C., 18 hours
Experimental: as §1, §3

[5] = tested on: Escherichia coil DC 2; test: as above; assay type: cell-based, Escherichia coli
Experimental: as §1, §3

[6] = tested on: Escherichia coil TEM; test: as above; assay type: cell-based, Escherichia coli
Experimental: as §1, §3

[7] = tested on: Staphylococcus aureus 285; test: as above; assay type: cell-based
Experimental: as §1, §3

[8] = tested on: Klebsiella aerogenes 1082E; test: as above; assay type: cell-based
Experimental: as §1, §3

[9] = tested on: Streptococcus pyogenes 308A; test: as above; assay type: cell-based
Experimental: as §1, §3

[10] = tested on: Salmonella typhimurium; test: as above; assay type: cell-based
Experimental: as §1, §3

[11] = tested on: Escherichia coli O 78; test: as above; assay type: cell-based; settings: 10^7 CFU/ml, 37° C., 18 hours
Experimental: as §1, §3

[12] = tested on: Pseudomonas aeruginosa 1771; test: as above; assay type: cell-based
Experimental: as §1, §3

[13] = tested on: Pseudomonas aeruginosa 9027; test: as above; assay type: cell-based
Experimental: as §1, §3

[14] = tested on: Staphylococcus aureus 503; test: as above; assay type: cell-based
Experimental: as §1, §3

[15] = tested on: Streptococcus faecium MD 8b; test: as above; assay type: cell-based
Experimental: as §1, §3

[16] = tested on: Pseudomonas aeruginosa 1592E; test: as above; assay type: cell-based
Experimental: as §1, §3

[17] = tested on: Klebsiella aerogenes 1552E; test: as above; assay type: cell-based
Experimental: as §1, §3

[18] = tested on: Streptococcus pyogenes 77A; test: as above; assay type: cell-based
Experimental: as §1, §3

[19] = tested on: Staphylococcus aureus SG 511; test: as above; assay type: cell-based
Experimental: as §1, §3

[20] = tested on: Pseudomonas aeruginosa 1771M; test: as above; assay type: cell-based; settings: 18 h
Experimental: as §1, §3

[21] = Escherichia coil DC 0, Mueller-Hinton agar, 10^7 CFU/ml, 37° C., 18 hours
[22] = Escherichia coil DC 2, Mueller-Hinton agar, 10^7 CFU/ml, 37° C., 18 hours
[23] = Escherichia coil TEM, Mueller-Hinton agar, 10^7 CFU/ml, 37° C., 18 hours
[24] = Staphylococcus aureus 285, Mueller-Hinton agar, 10^7 CFU/ml, 37° C., 18 hours
[25] = Klebsiella aerogenes 1082E, Mueller-Hinton agar, 10^7 CFU/ml, 37° C., 18 hours
[26] = Streptococcus pyogenes 308A, Mueller-Hinton agar, 10^7 CFU/ml, 37° C., 18 hours
[27] = Salmonella typhimurium, Mueller-Hinton agar, 10^7 CFU/ml, 37° C., 18 hours
[28] = Pseudomonas aeruginosa 1771, Mueller-Hinton agar, 10^7 CFU/ml, 37° C., 18 hours
[29] = Pseudomonas aeruginosa 9027, Mueller-Hinton agar, 10^7 CFU/ml, 37° C., 18 hours
[30] = Staphylococcus aureus 503, Mueller-Hinton agar, 10^7 CFU/ml, 37° C., 18 hours
[31] = Streptococcus faecium MD 8b, Mueller-Hinton agar, 10^7 CFU/ml, 37° C., 18 hours
[32] = Pseudomonas aeruginosa 1592E, Mueller-Hinton agar, 10^7 CFU/ml, 37° C., 18 hours
[33] = Klebsiella aerogenes 1552E, Mueller-Hinton agar, 10^7 CFU/ml, 37° C., 18 hours
[34] = Streptococcus pyogenes 77A, Mueller-Hinton agar, 10^7 CFU/ml, 37° C., 18 hours
[35] = Staphylococcus aureus SG 511, Mueller-Hinton agar, 10^7 CFU/ml, 37° C., 18 hours

SMILES | MIC [1] [µg/mL] | MIC [2] [µg/mL] | MIC [3, 21] [µg/mL] | MIC [4] [µg/mL] | MIC [5, 22] [µg/mL] | MIC [6, 23] [µg/mL] | MIC [7, 24] [µg/mL] | MIC [8, 25] [µg/mL] | MIC [9, 26] [µg/mL] | MIC [10, 27] [µg/mL] | MIC ([11]; Mueller-Hinton agar) [µg/mL] | MIC [12, 28] [µg/mL] | MIC [13, 29] [µg/mL] | MIC [14, 30] [µg/mL] | MIC [15, 31] [µg/mL] | MIC [16, 32] [µg/mL] | MIC [17, 33] [µg/mL] | MIC [18, 34] [µg/mL] | MIC [19, 35] [µg/mL] | also measured
Cl.O=C(C[N+](=O)[O-])c1cn(C2CC2)c2c(Cl)c(N3CC4CCCNC4C3)c(F)cc2c1=O (racemic) [B, 1-cyclopropyl-3-nitroacetyl-6-fluoro-8-chloro-7-[(trans-piperidinopyrrolidine)-8-yl]-4-oxo-1,4-dihydroquinoline hydrochloride] | 0.025 | 0.013 | 0.391 | 0.049 | 0.098 | 0.049 | 0.098 | 0.098 | 0.781 | 0.049 | < 0.025 | 1.563 | 0.781 | 0.195 | 0.195 | 0.781 | 0.098 | 0.195 | 0.098 | 
COc1c(N2CC3CCCNC3C2)c(F)cc2c(=O)c(C(=O)C[N+](=O)[O-])cn(C3CC3)c12.Cl (racemic) [C, 1-cyclopropyl-3-nitroacetyl-6-fluoro-8-methoxy-7-[(trans-piperidinopyrrolidine)-8-yl]-4-oxo-1,4-dihydroquinoline hydrochloride] | 0.004 | < 0.002 | 0.195 | 0.025 | 0.098 | 0.004 | 0.025 | 0.049 | 0.781 | 0.007 | < 0.002 | 0.781 | 0.781 | 0.025 | 0.391 | 0.781 | 0.013 | 0.391 | 0.098 | 
COc1c(N2C[C@@H]3CCCN[C@@H]3C2)c(F)cc2c(=O)c(C(=O)C[N+](=O)[O-])cn(C3CC3)c12.Cl (racemic) [D, 1-cyclopropyl-3-nitroacetyl-6-fluoro-8-methoxy-7-[(cis-piperidinopyrrolidine)-8-yl]-4-oxo-1,4-dihydroquinoline hydrochloride] | 0.013 | 0.013 | 0.195 | 0.098 | 0.098 | 0.098 | 0.391 | 0.049 | 1.563 | 0.098 | 0.049 | 0.781 | 1.563 | 0.391 | 0.391 | 0.781 | 0.049 | 0.391 | 0.195 | 
O=C(O)c1cn(C2CC2)c2c(Cl)c(N3CC4CCCNC4C3)c(F)cc2c1=O (stereo not drawn) [A, 1-cyclopropyl-6-fluoro-7-[(trans-piperidinopyrrolidine)-8-yl]-8-chloro-1,4-dihydroguinoline-4-oxo-3-carboxylicacid] | 0.004 (≈ 0.00986 µM) | < 0.002 | 0.195 (≈ 0.48 µM) | 0.025 (≈ 0.0616 µM) | 0.013 (≈ 0.032 µM) | 0.007 (≈ 0.0172 µM) | 0.025 (≈ 0.0616 µM) | < 0.002 | 0.391 (≈ 0.963 µM) | < 0.002 | < 0.002 | 0.781 (≈ 1.92 µM) | 0.781 (≈ 1.92 µM) | 0.025 (≈ 0.0616 µM) | 0.098 (≈ 0.241 µM) | 0.781 (≈ 1.92 µM) | 0.049 (≈ 0.121 µM) | 0.098 (≈ 0.241 µM) | 0.025 (≈ 0.0616 µM) | 
O=C(O)c1cn(C2CC2)c2cc(N3CCNCC3)c(F)cc2c1=O [Ciprofloxacin, ciprofloxacin, reference compound] |  |  |  |  |  |  |  |  |  |  |  |  |  |  |  |  |  |  |  | MIC ([3]; Escherichia, DC0, 18 h): 0.195 µg/mL (≈ 0.589 µM); MIC ([4]; read-out: MIC): 0.007 µg/mL (≈ 0.0211 µM); MIC ([5]; Escherichia, DC2, 18 h): 0.098 µg/mL (≈ 0.296 µM); MIC ([6]; Escherichia, 18 h): 0.007 µg/mL (≈ 0.0211 µM); MIC ([7]; Staphylococcus aureus, 285, 18 h): 0.391 µg/mL (≈ 1.18 µM); MIC ([8]; Klebsiella aerogenes, 1082E, 18 h): < 0.002 µg/mL; MIC ([9]; Streptococcus pyogenes, 308A, 18 h): 3.12 µg/mL (≈ 9.43 µM); MIC ([10]; Salmonella enterica, TYPHIMURIUM, 18 h): 0.007 µg/mL (≈ 0.0211 µM); MIC ([11]; O78, Mueller-Hinton agar, read-out: MIC): < 0.002 µg/mL; MIC ([12]; Pseudomonas aeruginosa, 1771, 18 h): 0.195 µg/mL (≈ 0.589 µM); MIC ([13]; Pseudomonas aeruginosa, 9027, 18 h): 0.391 µg/mL (≈ 1.18 µM); MIC ([14]; Staphylococcus aureus, 503, 18 h): 0.781 µg/mL (≈ 2.36 µM); MIC ([15]; Enterococcus faecium, MD8B, 18 h): 0.781 µg/mL (≈ 2.36 µM); MIC ([16]; Pseudomonas aeruginosa, 1592E, 18 h): 0.195 µg/mL (≈ 0.589 µM); MIC ([17]; Klebsiella aerogenes, 1552E, 18 h): 0.013 µg/mL (≈ 0.0392 µM); MIC [20]: 0.049 µg/mL (≈ 0.148 µM); MIC ([18]; Streptococcus pyogenes, 77A, 18 h): 0.781 µg/mL (≈ 2.36 µM); MIC ([19]; Staphylococcus aureus, SG511, 18 h): 0.195 µg/mL (≈ 0.589 µM)
